Laboratory results as given in publication PMC4298654, “In vivo formation of N-acyl-fumonisin B1” (Mycotoxin Research, 2014).

Experiment: In vivo formation of NAFB1 and NAHFB1 in rat kidney and liver (HPLC-ESI-MS/MS)
Set-up: N-acyl-derivative in tissue sample, analysis a / N-acyl-derivative in tissue sample, analysis b / N-acyl-derivative in tissue sample, mean: unit not given here
Conditions: 5 days
Excerpt: The study protocol was approved by the Institutional Animal Care and Use Committee, Richard B. Russell Agricultural Research Center, Athens, GA. Male Sprague–Dawley rats (Harlan Industries, Indianapolis, IN, USA), 7 weeks of age at receipt, were individually housed in stainless steel, wire mesh cages in an environmentally controlled room having a 12-h light/dark cycle. Food (2019 Global Rodent Diet, Teklad, Madison, WI, USA) and fresh tap water were provided ad libitum. After a 1 week acclimation period, the animals were randomly assigned to five groups (n = 2/group) having mean weights of 215 to 216 g (weight range of all animals, 211 to 220 g). For five consecutive days, they were observed, weighed, and given an intraperitoneal injection (ip) of 0 (vehicle), 0.5, 1.0, or 2.0 mg/kg body weight FB1 (provided by R. Eppley, US FDA), 1.0 mg/kg body weight HFB1 (positive control) (Voss et al. [2009]), or vehicle (0.9 % physiological saline). These doses corresponded to 0.69, 1.38, and 2.77 μmol FB1/kg body weight and 2.47 μmol/kg body weight HFB1 per day. In order to compare the effects of FB1 and HFB1, dosages will be expressed as molar concentrations and, on this basis, the high dose of FB1 is roughly equivalent to that of the positive control dose of HFB1. Dosing solutions were sterile filtered and administered at a volume rate of 10 ml/kg body weight. The animals were fasted overnight prior to administration of the final dose. The rats were euthanized (CO2 inhalation and exsanguination) 60 to 90 min following the final dose administration and examined by necropsy. The kidney and liver specimens were fixed in 10 % neutral buffered formalin, processed, and microscopically evaluated without knowledge of the animal’s identity or treatment group. Three representative liver and kidney specimens (100 mg each) were also collected, immediately frozen, and stored (−80 °C) until processed, at which time the tissues were thawed and homogenized in distilled/deionized water (1 ml water/100 mg tissue). The homogenates were lyophilized before they were shipped by overnight courier for the analysis of fumonisin metabolites and sphingolipids.
Lyophilized liver and kidney tissues (100 mg wet weight equivalents) were processed for the quantification of FB1, HFB1, NAFB1, NAHFB1, and sphingolipids. Preparation of the tissue samples was performed according to a previously published method (Harrer et al. [2013]). For the quantification of FB1 and HFB1, a d6-labeled derivative of FB1 (FB1-d6) was used as the internal standard. Synthetic derivatives with a heptadecanoic fatty acid (C17:0) residue were used as internal standards for the quantification of N-acyl-fumonisins and ceramides (N-C17:0-FB1, N-C17:0-HFB1, and N-C17:0-ceramide). The sphingoid bases and their phosphate derivatives were quantified using synthetic derivatives with a C17-acyl-backbone: sphingosine (C17:1), sphingosine-1-phosphate (C17:1), sphinganine (C17:0), sphinganine-1-phosphate (C17:0) as internal standards. The standards were dissolved in methanol:chloroform (2:1, v/v) and then mixed with the tissue samples. The samples spiked with internal standard were kept at room temperature for 30 min before being processed further. The internal standard-spiked samples were first extracted with ethyl acetate, isopropanol, and water (60:30:10, v/v/v) and a second time using methanol, chloroform, and water (60:30:10, v/v/v). The extracts were combined, the solvents removed by evaporation, and the dried samples stored at−80 °C till analyzed.
For the analysis, the samples were reconstituted in a mixture of water, methanol, and tetrahydrofurane (60:24:16, v/v/v). The NAFB1 and NAHFB1 derivatives having the following fatty acyl chain lengths were quantified by HPLC-MS/MS: C16:0, C18:0, C20:0, C22:0, C24:0, C26:0. Furthermore, we also quantified the unsaturated derivatives C24:1 and C26:1. The results are given as the sum of all N-acyl derivatives of FB1 or HFB1. […]

[1] = Kidney, treatment FB1 0,5 mg/kg BW ip
[2] = Kidney, treatment FB1 1 mg/kg BW ip
[3] = Kidney, treatment FB1 2 mg/kg BW ip
[4] = Kidney, treatment HFB1 1 mg/kg BW ip
[5] = Liver, treatment FB1 0,5 mg/kg BW ip
[6] = Liver, treatment FB1 1 mg/kg BW ip
[7] = Liver, treatment FB1 2 mg/kg BW ip
[8] = Liver, treatment HFB1 1 mg/kg BW ip

CCCCCCCCCCCCCCCC(=O)NC(C)C(O)CC(O)CCCCC(O)CC(C)CC(OC(=O)CC(CC(=O)O)C(=O)O)C(OC(=O)CC(CC(=O)O)C(=O)O)C(C)CCCC (stereo not shown) [FB1C16:0]
N-acyl-derivative in tissue sample, analysis a [1]: 7,4
N-acyl-derivative in tissue sample, analysis b [1]: 9,1
N-acyl-derivative in tissue sample, mean [1]: 8,2
N-acyl-derivative in tissue sample, analysis a [2]: 14,4
N-acyl-derivative in tissue sample, analysis b [2]: 12,6
N-acyl-derivative in tissue sample, mean [2]: 13,5
N-acyl-derivative in tissue sample, analysis a [3]: 12,1
N-acyl-derivative in tissue sample, analysis b [3]: 13,8
N-acyl-derivative in tissue sample, mean [3]: 13,0
N-acyl-derivative in tissue sample, analysis a [4]: 0,0
N-acyl-derivative in tissue sample, analysis b [4]: 0,0
N-acyl-derivative in tissue sample, mean [4]: 0,0
N-acyl-derivative in tissue sample, analysis a [5]: 6,8
N-acyl-derivative in tissue sample, analysis b [5]: 5,1
N-acyl-derivative in tissue sample, mean [5]: 6,0
N-acyl-derivative in tissue sample, analysis a [6]: 3,9
N-acyl-derivative in tissue sample, analysis b [6]: 6,4
N-acyl-derivative in tissue sample, mean [6]: 5,2
N-acyl-derivative in tissue sample, analysis a [7]: 8,4
N-acyl-derivative in tissue sample, analysis b [7]: 5,9
N-acyl-derivative in tissue sample, mean [7]: 7,1
N-acyl-derivative in tissue sample, analysis a [8]: 0,0
N-acyl-derivative in tissue sample, analysis b [8]: 0,0
N-acyl-derivative in tissue sample, mean [8]: 0,0

CCCCCCCCCCCCCCCCCC(=O)NC(C)C(O)CC(O)CCCCC(O)CC(C)CC(OC(=O)CC(CC(=O)O)C(=O)O)C(OC(=O)CC(CC(=O)O)C(=O)O)C(C)CCCC (stereo not shown) [FB1C18:0]
N-acyl-derivative in tissue sample, analysis a [1]: 2,5
N-acyl-derivative in tissue sample, analysis b [1]: 2,9
N-acyl-derivative in tissue sample, mean [1]: 2,7
N-acyl-derivative in tissue sample, analysis a [2]: 3,8
N-acyl-derivative in tissue sample, analysis b [2]: 3,1
N-acyl-derivative in tissue sample, mean [2]: 3,4
N-acyl-derivative in tissue sample, analysis a [3]: 4,0
N-acyl-derivative in tissue sample, analysis b [3]: 2,8
N-acyl-derivative in tissue sample, mean [3]: 3,4
N-acyl-derivative in tissue sample, analysis a [4]: 0,0
N-acyl-derivative in tissue sample, analysis b [4]: 0,0
N-acyl-derivative in tissue sample, analysis a [5]: 3,1
N-acyl-derivative in tissue sample, analysis b [5]: 2,4
N-acyl-derivative in tissue sample, mean [5]: 2,8
N-acyl-derivative in tissue sample, analysis a [6]: 2,0
N-acyl-derivative in tissue sample, analysis b [6]: 3,0
N-acyl-derivative in tissue sample, mean [6]: 2,5
N-acyl-derivative in tissue sample, analysis a [7]: 3,0
N-acyl-derivative in tissue sample, analysis b [7]: 3,9
N-acyl-derivative in tissue sample, mean [7]: 3,5
N-acyl-derivative in tissue sample, analysis a [8]: 0,0
N-acyl-derivative in tissue sample, analysis b [8]: 0,0

CCCCCCCCCCCCCCCCCCCC(=O)NC(C)C(O)CC(O)CCCCC(O)CC(C)CC(OC(=O)CC(CC(=O)O)C(=O)O)C(OC(=O)CC(CC(=O)O)C(=O)O)C(C)CCCC (stereo not shown) [FB1C20:0]
N-acyl-derivative in tissue sample, analysis a [1]: 0,2
N-acyl-derivative in tissue sample, analysis b [1]: 0,5
N-acyl-derivative in tissue sample, mean [1]: 0,4
N-acyl-derivative in tissue sample, analysis a [2]: 0,2
N-acyl-derivative in tissue sample, analysis b [2]: 0,0
N-acyl-derivative in tissue sample, mean [2]: 0,1
N-acyl-derivative in tissue sample, analysis a [3]: 0,0
N-acyl-derivative in tissue sample, analysis b [3]: 0,6
N-acyl-derivative in tissue sample, mean [3]: 0,3
N-acyl-derivative in tissue sample, analysis a [4]: 0,0
N-acyl-derivative in tissue sample, analysis b [4]: 0,0
N-acyl-derivative in tissue sample, mean [4]: 0,0
N-acyl-derivative in tissue sample, analysis a [5]: 0,0
N-acyl-derivative in tissue sample, analysis b [5]: 0,0
N-acyl-derivative in tissue sample, mean [5]: 0,0
N-acyl-derivative in tissue sample, analysis a [6]: 0,0
N-acyl-derivative in tissue sample, analysis b [6]: 0,0
N-acyl-derivative in tissue sample, mean [6]: 0,0
N-acyl-derivative in tissue sample, analysis a [7]: 0,0
N-acyl-derivative in tissue sample, analysis b [7]: 0,0
N-acyl-derivative in tissue sample, mean [7]: 0,0
N-acyl-derivative in tissue sample, analysis a [8]: 0,0
N-acyl-derivative in tissue sample, analysis b [8]: 0,0
N-acyl-derivative in tissue sample, mean [8]: 0,0

CCCCCCCCCCCCCCCCCCCCCC(=O)NC(C)C(O)CC(O)CCCCC(O)CC(C)CC(OC(=O)CC(CC(=O)O)C(=O)O)C(OC(=O)CC(CC(=O)O)C(=O)O)C(C)CCCC (stereo not shown) [FB1C22:0]
N-acyl-derivative in tissue sample, analysis a [1]: 0,7
N-acyl-derivative in tissue sample, analysis b [1]: 0,7
N-acyl-derivative in tissue sample, mean [1]: 0,7
N-acyl-derivative in tissue sample, analysis a [2]: 0,9
N-acyl-derivative in tissue sample, analysis b [2]: 0,6
N-acyl-derivative in tissue sample, mean [2]: 0,7
N-acyl-derivative in tissue sample, analysis a [3]: 0,9
N-acyl-derivative in tissue sample, analysis b [3]: 1,4
N-acyl-derivative in tissue sample, mean [3]: 1,2
N-acyl-derivative in tissue sample, analysis a [4]: 0,0
N-acyl-derivative in tissue sample, analysis b [4]: 0,0
N-acyl-derivative in tissue sample, mean [4]: 0,0
N-acyl-derivative in tissue sample, analysis a [5]: 2,9
N-acyl-derivative in tissue sample, analysis b [5]: 6,4
N-acyl-derivative in tissue sample, mean [5]: 4,7
N-acyl-derivative in tissue sample, analysis a [6]: 1,2
N-acyl-derivative in tissue sample, analysis b [6]: 4,0
N-acyl-derivative in tissue sample, mean [6]: 2,6
N-acyl-derivative in tissue sample, analysis a [7]: 2,9
N-acyl-derivative in tissue sample, analysis b [7]: 4,6
N-acyl-derivative in tissue sample, mean [7]: 3,8
N-acyl-derivative in tissue sample, analysis a [8]: 0,0
N-acyl-derivative in tissue sample, analysis b [8]: 0,0
N-acyl-derivative in tissue sample, mean [8]: 0,0

CCCCCCCCCCCCCCCCCCCCCCCC(=O)NC(C)C(O)CC(O)CCCCC(O)CC(C)CC(OC(=O)CC(CC(=O)O)C(=O)O)C(OC(=O)CC(CC(=O)O)C(=O)O)C(C)CCCC (stereo not shown) [FB1C24:0]
N-acyl-derivative in tissue sample, analysis a [2]: 3,0
N-acyl-derivative in tissue sample, analysis b [2]: 2,4
N-acyl-derivative in tissue sample, mean [2]: 2,7
N-acyl-derivative in tissue sample, analysis a [3]: 5,0
N-acyl-derivative in tissue sample, analysis b [3]: 4,4
N-acyl-derivative in tissue sample, mean [3]: 4,7
N-acyl-derivative in tissue sample, analysis a [4]: 0,0
N-acyl-derivative in tissue sample, analysis b [4]: 0,0
N-acyl-derivative in tissue sample, mean [4]: 0,0
N-acyl-derivative in tissue sample, analysis a [5]: 11,7
N-acyl-derivative in tissue sample, analysis b [5]: 12,3
N-acyl-derivative in tissue sample, mean [5]: 12,0
N-acyl-derivative in tissue sample, analysis a [6]: 2,1
N-acyl-derivative in tissue sample, analysis b [6]: 7,3
N-acyl-derivative in tissue sample, mean [6]: 4,7
N-acyl-derivative in tissue sample, analysis a [7]: 9,0
N-acyl-derivative in tissue sample, analysis b [7]: 17,6
N-acyl-derivative in tissue sample, mean [7]: 13,3
N-acyl-derivative in tissue sample, analysis a [8]: 0,0
N-acyl-derivative in tissue sample, analysis b [8]: 0,0
N-acyl-derivative in tissue sample, mean [8]: 0,0

CCCCCCCCC=CCCCCCCCCCCCCCC(=O)NC(C)C(O)CC(O)CCCCC(O)CC(C)CC(OC(=O)CC(CC(=O)O)C(=O)O)C(OC(=O)CC(CC(=O)O)C(=O)O)C(C)CCCC (stereo not shown) [FB1C24:1]
N-acyl-derivative in tissue sample, analysis a [1]: 3,6
N-acyl-derivative in tissue sample, analysis b [1]: 3,5
N-acyl-derivative in tissue sample, mean [1]: 3,6
N-acyl-derivative in tissue sample, analysis a [2]: 4,1
N-acyl-derivative in tissue sample, analysis b [2]: 4,6
N-acyl-derivative in tissue sample, mean [2]: 4,3
N-acyl-derivative in tissue sample, analysis a [3]: 5,7
N-acyl-derivative in tissue sample, analysis b [3]: 4,2
N-acyl-derivative in tissue sample, mean [3]: 4,9
N-acyl-derivative in tissue sample, analysis a [4]: 0,0
N-acyl-derivative in tissue sample, analysis b [4]: 0,0
N-acyl-derivative in tissue sample, mean [4]: 0,0
N-acyl-derivative in tissue sample, analysis a [5]: 9,2
N-acyl-derivative in tissue sample, analysis b [5]: 11,8
N-acyl-derivative in tissue sample, mean [5]: 10,5
N-acyl-derivative in tissue sample, analysis a [6]: 3,4
N-acyl-derivative in tissue sample, analysis b [6]: 6,3
N-acyl-derivative in tissue sample, mean [6]: 4,9
N-acyl-derivative in tissue sample, analysis a [7]: 9,0
N-acyl-derivative in tissue sample, analysis b [7]: 11,1
N-acyl-derivative in tissue sample, mean [7]: 10,1
N-acyl-derivative in tissue sample, analysis a [8]: 0,0
N-acyl-derivative in tissue sample, analysis b [8]: 0,0
N-acyl-derivative in tissue sample, mean [8]: 0,0
